Patent US20160304556A1, “[…] ACTIVE COMPOUNDS AND THEIR METHODS OF USE” (AGIOS PHARMACEUTICALS, INC, priority 2012, published 2016)

Columns and labels:
IDH1 R132C = IDH1 R132C (Homo sapiens, UniProt O75874, R132C); test: In vitro NADPH depletion assay for IDH1m R132C inhibitors; type: biochemical; details: enzyme, diaphorase/resazurin readout, read-out: IDH R132C IC50
Protocol: (§1) A test compound is prepared as 10 mM stock in DMSO and diluted to 50× final concentration in DMSO, for a 50 μl reaction mixture. IDH enzyme activity converting alpha-ketoglutarate to 2-hydroxyglutaric acid is measured using a NADPH depletion assay. In the assay the remaining cofactor is measured at the end of the reaction with the addition of a catalytic excess of diaphorase and resazurin, to generate a fluorescent signal in proportion to the amount of NADPH remaining. IDH1-R132 homodimer enzyme is diluted to […] in 40 μl of Assay Buffer(150 mM NaCl, 20 mM Tris-Cl pH 7.5, 10 mM MgCl2, 0.05% BSA, 2 mM b-mercaptoethanol); 1 μl of test compound dilution in DMSO is added and the mixture is incubated for 60 minutes at room temperature. The reaction is started with the addition of 10 μl of Substrate Mix ([…], 5 mM alpha-ketoglutarate, in Assay Buffer) and the mixture is incubated for 90 minutes at room temperature. The reaction is terminated with the addition of 25 μl of Detection Buffer (36 μg/ml diaphorase, […], in 1× Assay Buffer), and is incubated for 1 minute before reading on a SpectraMax platereader at Ex544/Em590.
Compounds are assayed for their activity against IDH1 R132C following the same assay as above with the following modifications: Assay Buffer is (50 mM potassium phosphate, pH 6.5; 40 mM sodium carbonate, 5 mM MgCl2, 10% glycerol, 2 mM b-mercaptoethanol, and 0.03% BSA). The concentration of NADPH and alpha-ketoglutarate in the Substrate Buffer is 20 μM and 1 mM, respectively.
(§2) Representative compounds of formula I set forth in Table 1 were tested in this assay and the results are set forth below in Table 3.

IDH1 R132H = IDH1 R132H (Homo sapiens, UniProt O75874, R132H); test: In vitro NADPH depletion assay for IDH1m R132H inhibitors; type: biochemical; details: enzyme, diaphorase/resazurin readout, read-out: IDH R132H IC50
Sequence of IDH1 R132H (O75874 whole entry R132H): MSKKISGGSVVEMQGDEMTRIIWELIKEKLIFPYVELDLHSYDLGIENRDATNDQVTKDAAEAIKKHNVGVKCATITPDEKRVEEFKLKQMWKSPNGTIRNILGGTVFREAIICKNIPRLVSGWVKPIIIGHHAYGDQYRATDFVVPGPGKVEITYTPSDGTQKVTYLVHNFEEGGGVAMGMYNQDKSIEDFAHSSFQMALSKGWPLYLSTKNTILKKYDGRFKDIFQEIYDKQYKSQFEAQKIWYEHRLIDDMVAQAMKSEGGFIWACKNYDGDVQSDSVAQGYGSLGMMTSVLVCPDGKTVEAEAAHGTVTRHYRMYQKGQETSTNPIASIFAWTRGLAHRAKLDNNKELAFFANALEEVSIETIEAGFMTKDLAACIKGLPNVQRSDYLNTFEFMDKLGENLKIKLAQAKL
Protocol: as §1, §2

HT1080 cells = test: Cellular assay, inhibition of 2-HG production (LC-MS) in HT1080 cells; type: cell-based; details: Homo sapiens, HT-1080, 48 hours, LC-MS of media
Protocol: Cells (HT1080 or U87MG) are grown in T125 flasks in DMEM containing 10% FBS, 1× penicillin/streptomycin and 500 ug/mL G418 (present in U87MG cells only). They are harvested by trypsin and seeded into 96 well white bottom plates at a density of 5000 cell/well in 100 μl/well in DMEM with 10% FBS. No cells are placed in columns 1 and 12. Cells are incubated overnight at 37° C. in 5% CO2. The next day test compounds are made up at 2× the final concentration and 100 μl are added to each cell well. The final concentration of DMSO is 0.2% and the DMSO control wells are plated in row G. The plates are then placed in the incubator for 48 hours. At 48 hours, 100 μl of media is removed from each well and analyzed by LC-MS for 2-HG concentrations. The cell plate is placed back in the incubator for another 24 hours. At 72 hours post compound addition, 10 mL/plate of Promega Cell Titer Glo reagent is thawed and mixed. The cell plate is removed from the incubator and allowed to equilibrate to room temperature. Then 100 μl of Promega Cell Titer Glo reagent is added to each well of media. The cell plate is then placed on an orbital shaker for 10 minutes and then allowed to sit at room temperature for 20 minutes. The plate is then read for luminescence with an integration time of 500 ms.
The IC50 for inhibition of 2-HG production (concentration of test compound to reduce 2HG production by 50% compared to control) in these two cell lines for various compounds of formula I is set forth in Table 2 above.

Sequence of IDH1 R132C (O75874 whole entry R132C): as the sequence (O75874 whole entry R132H) above, with H132C counted along it

| IC50 (IDH1 R132C) [µM] | IC50 (IDH1 R132H) [µM] | IC50 (HT1080 cells) [µM] | SMILES |
| --- | --- | --- | --- |
| ≤ 0.1 | 0.1 to 0.5 | 0.1 to 0.5 | O=C(NC1CC(F)(F)C1)[C@H](c1ccccc1Cl)N(C(=O)[C@@H]1CCN1c1ncccn1)c1cccc(F)c1 (stereo in doubt) [Compound 102] |
| ≤ 0.1 | 0.1 to 0.5 | 0.1 to 0.5 | O=C(NC1CC(F)(F)C1)[C@@H](c1ccccc1Cl)N(C(=O)[C@@H]1CCN1c1ccccn1)c1cccc(F)c1 (stereo in doubt) [Compound 105] |
| ≤ 0.1 | ≤ 0.1 | 0.1 to 0.5 | O=C(NC1CCCCC1)C(c1ccc(F)cc1F)N(C(=O)Cn1cnc(Cl)c1Cl)c1cccc(F)c1 (stereo not drawn) [Compound 29] |
| ≤ 0.1 | ≤ 0.1 | 0.1 to 0.5 | O=C(NC1CC(F)(F)C1)C(c1ccccc1Cl)N(C(=O)Cn1cnc(Cl)c1Cl)c1cccc(F)c1 (stereo not drawn) [Compound 35] |
| ≤ 0.1 | ≤ 0.1 | 0.1 to 0.5 | O=C(NC1CCC(F)(F)CC1)C(c1ccccc1Cl)N(C(=O)CNc1ncccc1F)c1cccc(F)c1 (stereo not drawn) [Compound 48] |
| 0.1 to 0.5 | 0.1 to 0.5 | 0.1 to 0.5 | COC(=O)N1CCC[C@H]1C(=O)N(c1cccc(F)c1)[C@H](C(=O)NC1CC(F)(F)C1)c1c(Cl)cccc1Cl [Compound 66] |
| ≤ 0.1 | ≤ 0.1 | 0.1 to 0.5 | COC(=O)N1CCN(C(C)=O)C[C@H]1C(=O)N(c1cccc(F)c1)[C@H](C(=O)NC1CC(F)(F)C1)c1ccccc1Cl [Compound 68, (S)-Methyl 4-acetyl-2-(((S)-1-(2-chlorophenyl)-2-(3,3-difluorocyclobutylamino)-2-oxoethyl) (3-fluorophenyl)carbamoyl)piperazine-1-carboxylate] |
| ≤ 0.1 | ≤ 0.1 | ≤ 0.1 | O=C(NC1CC(F)(F)C1)[C@H](c1ccccc1Cl)N(C(=O)[C@@H]1CCCN1c1ncccn1)c1cccc(F)c1 [Compound 69, (2S)—N—((S)-(3,3-difluorocyclobutylcarbamoyl)(2-chlorophenyl)methyl)-N-(3-fluorophenyl)-1-(pyrimidin-2-yl)pyrrolidine-2-carboxamide] |
| ≤ 0.1 | ≤ 0.1 | 0.1 to 0.5 | COC(=O)N1C[C@@H](F)C[C@H]1C(=O)N(c1cccc(F)c1)[C@H](C(=O)NC1CC(F)(F)C1)c1ccccc1Cl [Compound 70] |
| 0.1 to 0.5 | 0.1 to 0.5 | 0.5 to 1 | COC(=O)NCC(=O)N(c1cccc(F)c1)C(C(=O)NC1CC(F)(F)C1)c1ccccc1Cl (stereo not drawn) [Compound 73, methyl 2-((1-(2-chlorophenyl)-2-(3,3-difluorocyclobutylamino)-2-oxoethyl)(3-fluorophenyl)amino)-2-oxoethylcarbamate] |
| 0.1 to 0.5 | 0.1 to 0.5 | 1 to 2 | CC(C)OC(=O)NCC(=O)N(c1cccc(F)c1)C(C(=O)NC1CC(F)(F)C1)c1ccccc1Cl (stereo not drawn) [Compound 74] |
| 0.1 to 0.5 | 0.1 to 0.5 | 0.5 to 1 | CCOC(=O)NCC(=O)N(c1cccc(F)c1)C(C(=O)NC1CC(F)(F)C1)c1ccccc1Cl (stereo not drawn) [Compound 75] |
| ≤ 0.1 | ≤ 0.1 | ≤ 0.1 | COCCO[C@@H]1C[C@@H](C(=O)N(c2cccc(F)c2)[C@H](C(=O)NC2CC(F)(F)C2)c2ccccc2Cl)N(C(=O)OC)C1 [Compound 79, (2S,4R)-methyl 2-(((S)-1-(2-chlorophenyl)-2-((3,3-difluoro-cyclobutyl)amino)-2-oxoethyl)(3-fluorophenyl)carbamoyl)-4-(2-methoxyethoxy)pyrrolidine-1-carboxylate] |
| 0.1 to 0.5 | 0.1 to 0.5 | 0.1 to 0.5 | COC(=O)NCC(=O)N(c1cccc(F)c1)C(C(=O)NC1CCC(F)CC1)c1ccccc1Cl (stereo not drawn) [Compound 81] |
| ≤ 0.1 | ≤ 0.1 | 0.1 to 0.5 | COC(=O)NCC(=O)N(c1cccc(F)c1)[C@H](C(=O)N[C@H]1CCCCC1(F)F)c1ccccc1Cl [Compound 82] |
| 0.1 to 0.5 | 0.1 to 0.5 | 0.5 to 1 | COC(=O)NCC(=O)N(c1cccc(F)c1)[C@H](C(=O)N[C@@H]1CCCCC1(F)F)c1ccccc1Cl [Compound 83] |

| IC50 (IDH1 R132C) [µM] | IC50 (IDH1 R132H) [µM] | IC50 (HT1080 cells) [µM] | SMILES |
| --- | --- | --- | --- |
| ≤ 0.1 | ≤ 0.1 | 0.1 to 0.5 | COC(=O)N[C@@H](CO)C(=O)N(c1cccc(F)c1)[C@H](C(=O)NC1CCCCC1)c1ccccc1Cl [Compound 84] |
| 0.1 to 0.5 | ≤ 0.1 | 0.5 to 1 | COC(=O)N[C@@H](CO)C(=O)N(c1cccc(F)c1)[C@@H](C(=O)NC1CCCCC1)c1ccccc1Cl [Compound 85] |
| ≤ 0.1 | ≤ 0.1 | 0.1 to 0.5 | O=C(NC1CC(F)(F)C1)C(c1ccccc1Cl)N(C(=O)Cc1cccnc1)c1cccc(F)c1 (stereo not drawn) [Compound 86] |
| ≤ 0.1 | ≤ 0.1 | 0.1 to 0.5 | Cc1nc(Cl)c(Cl)n1CC(=O)N(c1cccc(F)c1)C(C(=O)NC1CC(F)(F)C1)c1ccccc1Cl (stereo not drawn) [Compound 87] |
| 0.1 to 0.5 | 0.5 to 1 | 1 to 2 | C=CC(=O)Nc1cccc(N(C(=O)Cc2cccnc2)C(C(=O)NC2CC(F)(F)C2)c2ccccc2Cl)c1 (stereo not drawn) [Compound 88, N-(3-(N-(1-(2-chlorophenyl)-2-(3,3-difluorocyclobutylamino)-2-oxoethyl)-2-(pyridin-3-yl)acetamido)phenyl)acrylamide] |
| ≤ 0.1 | ≤ 0.1 | 0.1 to 0.5 | COC(=O)N1C[C@H](OCCO)C[C@H]1C(=O)N(c1cccc(F)c1)[C@H](C(=O)NC1CC(F)(F)C1)c1ccccc1Cl [Compound 90] |
| 0.1 to 0.5 | ≤ 0.1 | 0.1 to 0.5 | COC(=O)N1CC[C@H](O)[C@H]1C(=O)N(c1cccc(F)c1)[C@H](C(=O)NC1CC(F)(F)C1)c1ccccc1Cl [Compound 91] |
| ≤ 0.1 | ≤ 0.1 | 0.1 to 0.5 | COC(=O)NCC(=O)N(c1cccc(F)c1)C(C(=O)NC1CCC(F)(F)CC1)c1ccccc1Cl (stereo not drawn) [Compound 92] |
| 0.1 to 0.5 | 0.1 to 0.5 | 1 to 2 | CC(C)(C)OC(=O)NCC(=O)N(c1cccc(F)c1)C(C(=O)NC1CCC(F)(F)CC1)c1ccccc1Cl (stereo not drawn) [Compound 93] |
| 0.1 to 0.5 | ≤ 0.1 | 0.5 to 1 | COC(=O)N(C)CC(=O)N(c1cccc(F)c1)C(C(=O)NC1CC(F)(F)C1)c1ccccc1Cl (stereo not drawn) [Compound 96] |
| 0.1 to 0.5 | 0.1 to 0.5 | 0.5 to 1 | COC(=O)NCC(=O)N(c1cccc(F)c1)[C@H](C(=O)N[C@H]1CCC(F)(F)C1)c1ccccc1Cl [Compound 97] |
| 0.1 to 0.5 | 0.1 to 0.5 | 1 to 2 | COC(=O)NCC(=O)N(c1cccc(F)c1)[C@H](C(=O)N[C@@H]1CCC(F)(F)C1)c1ccccc1Cl [Compound 98] |
| ≤ 0.1 | ≤ 0.1 | 0.1 to 0.5 | O=C(NC1CC(F)(F)C1)[C@H](c1ccccc1Cl)N(C(=O)[C@@H]1C[C@@H](O)CN1c1ncccn1)c1cccc(F)c1 [Compound 100, (2S,4R)—N—((S)-1-(2-chlorophenyl)-2-(3,3-difluorocyclobutyl-amino)-2-oxoethyl)-N-(3-fluorophenyl)-4-hydroxy-1-(pyrimidin-2-yl)pyrrolidine-2-carbox-amide] |
| 0.1 to 0.5 | 0.1 to 0.5 | 1 to 2 | COC(=O)N[C@@H](CO)C(=O)N(c1cccc(F)c1)C(C(=O)NC1CCC(F)(F)CC1)c1ccccc1Cl (stereo partly drawn) [Compound 101] |
| 0.1 to 0.5 | ≤ 0.1 | 0.1 to 0.5 | COC(=O)N1CC[C@H]1C(=O)N(c1cccc(F)c1)[C@H](C(=O)NC1CC(F)(F)C1)c1ccccc1Cl [Compound 106] |
